Source: patent US20250129012A1, “ANTI-INFLAMMATORY AND ANALGESIC COMPOUNDS AND USE THEREOF” (JIANGSU ATOM BIOSCIENCE AND PHARMACEUTICAL CO., LTD., priority 2021, published 2025)
Read-outs that look alike come from different tables or passages of the source. Marks after values point to notes of the source that are not given here.

How the values were obtained:
TNF-α [1] = experiment: Inflammatory factor experiment A: TNF-α in gouty arthritis rats; assay type: in vivo, SD rats; conditions: synovial tissue of knee joints; dose 0.6 mg/kg gavage; day 10
Description: (§1) Compounds 14, 17 and 26 were prepared by grinding with 0.5% CMC-Na before administration and into a suspension for gavage at the corresponding concentration (0.06 mg/mL), with a dosage volume of 10 mL/kg. Colchicine, purchased from Sun Chemical Technology (Shanghai) Co., Ltd. with batch no. 49ETRRAS, and was prepared by grinding with 0.5% CMC-Na before administration and into a suspension for gavage at the corresponding concentration (0.06 mg/mL), with a dosage volume of 10 mL/kg.
(§2) The compounds in each group were prepared into a suspension of the corresponding concentration, and the dosage volume was 10 mL/kg.
(§3) The crystalline arthritis model was prepared by intra-articular injection of urate crystals (40 mg/mL in the left ankle joint of each rat). Different doses of the test compounds were given separately by gavage administration. The day of administration was defined as day 1 of the experiment, and the compounds were administered once a day for 10 consecutive days (pre-administration of the drug for 7 days prior to modeling, modeling on day 8, and continuation of the drug for 3 days). The experiment ended on day 10. […]

IL-6 [2] = experiment: Inflammatory factor experiment A: IL-6 in gouty arthritis rats; assay type: in vivo, SD rats; conditions: synovial tissue of knee joints; dose 0.6 mg/kg gavage; day 10
Description: as §1, §2, §3

IL-6 [3] = experiment: Inflammatory factor experiment B: IL-6 in knee synovial tissue (ELISA); assay type: in vivo, SD rats; conditions: Rattus norvegicus, po; synovial tissue of knee joints, 48 h after modeling; dose 0.6 mg/kg; read-out: IL-6 percentage decrease %
TNF-α [4] = experiment: Inflammatory factor experiment B: TNF-α in knee synovial tissue (ELISA); assay type: in vivo, SD rats; conditions: Rattus norvegicus, po; synovial tissue of knee joints, 48 h after modeling; dose 0.6 mg/kg; read-out: TNF-α percentage decrease %
[5] = tested on: gouty arthritis rats (sodium urate, right ankle and knee joint cavities); experiment: Pharmacodynamics experiment B on gouty arthritis rats: ankle swelling rate; assay type: in vivo, SD rats; conditions: Rattus norvegicus, po, dose 0.6 mg/kg gavage, read-out: Swelling rate (ankle)
Outline: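 Male SD rats dosed by gavage at 0.6 mg/kg (0.5% CMC-Na suspension) daily for 7 days before and 3 days after injection of 0.2 mL sodium urate solution into right ankle and knee joints. Ankle circumference measured before and 2-48 h after modeling; swelling rate = swelling degree/baseline ×100%, mean values.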

[6] = tested on: gouty arthritis rats (sodium urate, right ankle and knee joint cavities); experiment: Pharmacodynamics experiment B on gouty arthritis rats: gait score; assay type: in vivo, SD rats; conditions: for Gait Score: dose 0.6 mg/kg gavage, mean; for Gait versus model group, in words: compounds 0.6 mg/kg, colchicine 0.6 and 1.2 mg/kg
Outline: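 Male SD rats (180-220 g) received test compounds by gavage as 0.5% CMC-Na suspensions, once daily for 7 days before modeling and for 3 days afterward. Gouty arthritis was induced by injecting 0.2 mL sodium urate solution into the right ankle and knee joint cavities. Gait was graded 0-3 using modified Coderre criteria, and group mean scores were compared with the model group by ANOVA-Dunnett T-test (P<0.05).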

IL-1β = experiment: Inflammatory factor experiment B: IL-1β in knee synovial tissue (ELISA); assay type: in vivo, SD rats; conditions: Rattus norvegicus, po; synovial tissue of knee joints, 48 h after modeling; dose 0.6 mg/kg; read-out: IL-1β percentage decrease %
[7] = In vivo pharmacokinetics in SD rats; conditions: Sprague-Dawley, rat; for F / AUC(0-inf) / MRT inf / Vd / clearance / Cmax / Tmax: in vivo; for half-life: plasma, read-out: t1/2 (converted)
Outline: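 SD rats received compound intravenously (0.5 mg/mL solution) or by oral gavage (1 mg/mL, fasted overnight), both formulated in DMSO/Solutol HS15/saline. Plasma compound concentrations were measured by LC/MS/MS. Non-compartmental parameters were then calculated.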

[8] = Acute toxicity test in mice by single administration; assay type: in vivo, ICR mice; conditions: both sexes, ICR, mouse, in vivo, po; acute toxicity, mice, single gavage; read-out: Maximum tolerated dose (MTD)
Description: (§4) Compounds 34, 48, 55 and 58 were ground with 0.5% CMC-Na before administration, and prepared into a suspension of the corresponding concentration for gavage, with an administration volume of 0.1 mL/10 g.
(§5) ICR mice, SPF grade, weighing 18-20 g, 6-8 weeks old, were provided by Nantong University. The Laboratory Animal Production License was SCXK (Su) 2016-0010 and Laboratory Animal Use License was SYXK (Su) 2017-0035.
(§6) After overnight fasting, the drug was administered once by gavage in a volume of 0.1 mL/10 g. The normal group was given the corresponding volume of 0.5% CMC-Na solution according to body weight. The state of the animal was observed after administration, the animals were weighed daily and the number of deaths was recorded for 14 consecutive days.

ICR mice = experiment: as above; assay type: in vivo; conditions: 14 days, deaths/animals
Description: as §4, §5, §6

[9] = Intravenous injection - 1 mg/kg

| SMILES | inhibition in vivo at 0.6 mg/kg (IL-6 [3]) [%] | inhibition in vivo at 0.6 mg/kg (TNF-α [4]) [%] | change in vivo at 0.6 mg/kg ([5]; 2 h) [%] | inhibition in vivo at 0.6 mg/kg (IL-1β) [%] | F ([7]; 10 mg/kg) [%] | AUC(0-inf) ([7]; iv, 1 mg/kg) [ng·h/mL] | MRT inf ([7]; iv, 1 mg/kg) [h] | Vd ([7]; iv, 1 mg/kg) [L/kg] | clearance ([7]; iv, 1 mg/kg) [mL/min/kg] | AUC(0-inf) ([7]; po, 10 mg/kg) [ng·h/mL] | Cmax ([7]; po, 10 mg/kg) [ng/mL] | MRT inf ([7]; po, 10 mg/kg) [h] | Tmax ([7]; po, 10 mg/kg) [h] | half-life ([7]; po, Gavage - 10 mg/kg) [h] | half-life [7, 9] [h] | MTD at 14 days [8] [mg/kg] | Mortality rate (ICR mice; single gavage dose 50 mg/kg) | Mortality rate (ICR mice; single gavage dose 100 mg/kg) | Mortality rate (ICR mice; single gavage dose 400 mg/kg) | Mortality rate (ICR mice; single gavage dose 600 mg/kg) | other results |
| --- | --- | --- | --- | --- | --- | --- | --- | --- | --- | --- | --- | --- | --- | --- | --- | --- | --- | --- | --- | --- | --- |
| COc1cc2c(c(OC)c1OC)-c1cc(Br)c(OC)c(=O)cc1[C@@H](NC(C)=O)CC2 [Compound 14, (S)—N-(11-bromo-1,2,3,10-tetramethoxy-9-oxo-5,6,7,9-tetrahydrobenzo[a]heptalen-7-yl)acetamide] | – | – | – | – | – | – | – | – | – | – | – | – | – | – | – | – | – | – | – | – | Decreased TNF-α percentage % (TNF-α [1]): 125.78%; Decreased IL-6 percentage % (IL-6 [2]): 119.58% |
| CNC(=O)c1ccc2c(cc1=O)[C@@H](NC(C)=O)CCc1cc(OC)c(OC)c(OC)c1-2 [Compound 48, (S)-7-acetamido-1,2,3-trimethoxy-N-methyl-9-oxo-5,6,7,9-tetrahydrobenzo[a]heptalene-10-carboxamide] | 110 | 81.6 | 9.42 | 82.2 | 57.0 | 580 | 0.641 | 1.11 | 29.2 | 3300 | 1930 | 1.83 | 0.25 | 1.61 | 0.536 | > 600 | 0/6 | 0/6 | 0/6 | 0/6 | change in vivo at 0.6 mg/kg ([5]; 4 h): 15.5%; change in vivo at 0.6 mg/kg ([5]; 8 h): 21%; change in vivo at 0.6 mg/kg ([5]; 10 h): 21.5%; change in vivo at 0.6 mg/kg ([5]; 24 h): 22.4%; change in vivo at 0.6 mg/kg ([5]; 48 h): 13.6%; Gait Score ([6]; 2 h): 0; Gait Score ([6]; 4 h): 0.1; Gait Score ([6]; 8 h): 0.1**; Gait Score ([6]; 10 h): 0**; Gait Score ([6]; 24 h): 0*; Gait Score ([6]; 48 h): 0; Gait versus model group, in words [6]: significant improvement in gait occurred at different time points |
| CCNC(=O)c1ccc2c(cc1=O)[C@@H](NC(C)=O)CCc1cc(OC)c(OC)c(OC)c1-2 [Compound 55, (S)-7-acetamido-1,2,3-trimethoxy-N-ethyl-9-oxo-5,6,7,9-tetrahydrobenzo[a]heptalen-10-carboxamide] | 128 | 86.4 | – | 133 | 115 | 543 | 0.592 | 1.1 | 31.2 | 6260 | 2040 | 2.72 | 0.333 | 2.02 | 0.6 | > 600 | 0/6 | 0/6 | 0/6 | 0/6 | – |
| COc1cc2c(c(OC)c1OC)-c1ccc(C(=O)Nc3ccccc3)c(=O)cc1[C@@H](NC(C)=O)CC2 [Compound 58, (S)-7-acetamido-1,2,3-trimethoxy-N-phenyl-9-oxo-5,6,7,9-tetrahydrobenzo[a]heptalen-10-carboxamide] | 86.7 | 80.5 | 6.48 | 87.5 | 109 | 1390 | 2.04 | 1.44 | 12.1 | 15100 | 2040 | 4.58 | 2.67 | 2.22 | 1.92 | > 600 | 0/6 | 0/6 | 0/6 | 0/6 | change in vivo at 0.6 mg/kg ([5]; 4 h): 13.8%; change in vivo at 0.6 mg/kg ([5]; 8 h): 17.2%; change in vivo at 0.6 mg/kg ([5]; 10 h): 20.4%; change in vivo at 0.6 mg/kg ([5]; 24 h): 18.1%; change in vivo at 0.6 mg/kg ([5]; 48 h): 8.42%; Gait Score ([6]; 2 h): 0; Gait Score ([6]; 4 h): 0*; Gait Score ([6]; 8 h): 0.3; Gait Score ([6]; 10 h): 0.2**; Gait Score ([6]; 24 h): 0; Gait Score ([6]; 48 h): 0; Gait versus model group, in words [6]: significant improvement in gait occurred at different time points |
